The subject of experiment [1] is metrazol-induced seizures. Nature of the experiment: Time course of antimetrazol activity of prodrugs. In kind it is in vivo, mice (CF1). Particulars: Mus musculus, 60 mg/kg ip.
The subject of experiment [2] is metrazol induced convulsions. Nature of the experiment: Inhibition of metrazol induced convulsions (Table 2). The experiment is classed as in vivo, mice. Particulars: Mus musculus; inhibition of metrazol induced convulsions; read-out: Anti-Metrazol ED50. How it is done: Experiments were also performed to determine the physiological relevance of these interactions by measuring the ability of the compound of and used in the invention to modulate TBPS-induced convulsions in Swiss-Webster mice. […] The time to onset of myoclonus (presence of forelimb clonic activity) induced by TBPS was determined by observing each mouse for a period of 45 minutes. Significant differences between the time to onset in control mice vs. steroid-treated mice were determined by Student's t-test. […] The number of animals with tonic and/or clonic convulsions was recorded. In the maximal electroshock test, 50 mA of current at 60 Hz was delivered through corneal electrodes for 200 msec to induce tonic seizure. […] The ED50 (the dose at which the half-maximal effect occurs) was determined for each screen.
Adult male CFI mice (20-30g) were used in these studies. […] Percent protection against metrazol-induced seizures was plotted against time after administration of the compound. […] Ten to twelve mice were used per dose of test drug. […] The number of animals with tonic and/or clonic convulsions was recorded. The ability of the steroid to abolish the tonic component was defined as the endpoint. Sedative potential was determined by a rotorod test where the number of mice staying on a rotating (6 rpm) rod for ≥1 min. in each of three trials was determined.

For experiment [3], the target named is GABA receptor-chloride ionophore complex (GR complex). Nature of the experiment: [35S]TBPS binding modulation assay. Particulars: for IC50: read-out: IC50, inhibition of [35S]-TBPS binding, +5 μM GABA, in the presence of 5 μM GABA; for Max. Inhib., maximal % of specifically bound [35S]-TBPS displaced: saturating concentrations of test compound.
In another experiment the target is T1, progesterone receptor (Bos taurus, UniProt F1N712).
T1 construct: from tissue; host or cells: bovine uterus cytosol
T1 sequence (F1N712 1-914): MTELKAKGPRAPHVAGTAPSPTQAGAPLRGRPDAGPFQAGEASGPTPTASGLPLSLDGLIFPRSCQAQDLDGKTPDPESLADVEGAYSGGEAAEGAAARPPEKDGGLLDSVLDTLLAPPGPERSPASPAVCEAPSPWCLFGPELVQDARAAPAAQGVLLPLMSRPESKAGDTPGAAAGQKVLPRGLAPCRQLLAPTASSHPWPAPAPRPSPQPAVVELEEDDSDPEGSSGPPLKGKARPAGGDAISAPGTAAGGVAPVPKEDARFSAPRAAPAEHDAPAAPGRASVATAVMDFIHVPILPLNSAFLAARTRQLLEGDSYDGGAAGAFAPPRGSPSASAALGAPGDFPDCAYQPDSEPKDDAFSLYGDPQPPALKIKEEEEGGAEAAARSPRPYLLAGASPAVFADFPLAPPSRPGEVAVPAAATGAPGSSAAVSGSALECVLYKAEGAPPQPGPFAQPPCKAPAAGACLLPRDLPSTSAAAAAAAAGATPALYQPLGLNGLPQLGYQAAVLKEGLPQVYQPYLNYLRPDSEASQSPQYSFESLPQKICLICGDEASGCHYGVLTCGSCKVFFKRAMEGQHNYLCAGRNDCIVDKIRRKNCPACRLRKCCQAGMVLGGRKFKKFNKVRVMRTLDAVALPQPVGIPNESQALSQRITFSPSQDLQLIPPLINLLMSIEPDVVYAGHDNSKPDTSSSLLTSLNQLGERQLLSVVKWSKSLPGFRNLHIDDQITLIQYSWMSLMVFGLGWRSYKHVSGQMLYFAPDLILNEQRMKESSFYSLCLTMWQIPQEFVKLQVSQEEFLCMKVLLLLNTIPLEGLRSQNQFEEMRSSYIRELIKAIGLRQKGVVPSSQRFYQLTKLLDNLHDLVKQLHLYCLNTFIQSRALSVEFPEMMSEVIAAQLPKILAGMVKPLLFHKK
The experiment can be described thus: Inhibition of 3H-progesterone binding to bovine uteral progesterone receptors. How it is done:
The hormonal activity of drugs described herein was further studied through testing their potential estrogenic, progestinic, mineralocorticoid and glucocorticoid activities. These activities were analyzed by monitoring the ability of the drugs to inhibit binding of the steroid hormones to their respective hormone receptors.
For the data presented in Table 9, bovine uteri cytosol was isolated as they were for Table 7 and used for following binding to progesterone receptors by following the inhibition of ^3 H-progesterone, the natural ligand.

Experiment [4] concerns GABA receptor complex (36Cl uptake, cerebral cortical synaptoneurosomes). The experiment can be described thus: GABA-stimulated 36Cl uptake in rat cerebral cortical synaptoneurosomes. The experiment is classed as biochemical, rat (male Sprague-Dawley). Here is the method: In addition, the ability of the BZ clonazepam to modulate ^36 Cl uptake in the presence or absence of 5α-pregnandiol was evaluated.
The homogenate was diluted to a final volume of 40 mL with buffer and filtered through three layers of Nylon mesh (160 μm).
Aliquots of membrane preparation (200 μL) were preincubated at 30° C. for 10 min. The interaction was initiated by the simultaneous addition of drugs/steroids and 0.2 mL ^36 Cl (New England Nuclear Boston, Mass., 0.55 mCi/mmol, 0.8 μCi/ml) resulting in a total incubation volume of 0.4 mL. Steroids and test drugs were solubilized in dimethylsufoxide (DMSO) and added to the reaction mixture in 2 μL aliquots. An equal volume of vehicle was always included in the control reaction mixture. The mixture was gently mixed and ^36 Cl uptake terminated after 5 sec by the of 5 mL of ice cold buffer containing 100 μM picrotoxin (Sigma Chem Co.) followed immediately by rapid filtration through glass fiber filters (Whatman GF/C) under vacuum. The filters were washed twice with 5 mL of ice-cold buffer and the filter-bound radioactivity quantitated by liquid scintillation spectrophotometry. Specific uptake was calculated by subtracting the amount of ^36 Cl bound to the filters in the absence of synaptoneurosomes from that observed in their presence. Percent enhancement represents percent increase in uptake over that of basal ^36 Cl uptake. Statistical comparisons utilized the analysis of variance (ANOVA).

Setting [5] is: 1 hr, read-out: Antimetrazol activity, % of animals protected, 1 hr.
[6] abbreviates: 4 hr, read-out: Antimetrazol activity, % of animals protected, 4 hr.

Read-outs that look alike come from different tables or passages of the source.

As to `CCCC(=O)O[C@@H]1CC[C@@]2(C)[C@@H](CC[C@@H]3[C@@H]2CC[C@]2(C)[C@@H](C(C)=O)CC[C@@H]32)C1`, the responders at 60 mg/kg in experiment [1] (setting [5]) came out at 75%; in experiment [1] (setting [6]), 13%.

`CC(=O)[C@H]1CC[C@H]2[C@@H]3CC[C@H]4C[C@H](OC(=O)C(C)C)CC[C@]4(C)[C@H]3CC[C@]12C`: the values for the responders at 60 mg/kg in experiment [1] (setting [5]) and in experiment [1] (setting [6]) were 75% and 29%, respectively.

For the molecule `CC(=O)[C@H]1CC[C@H]2[C@@H]3CC[C@H]4C[C@H](OC(=O)c5ccccc5)CC[C@]4(C)[C@H]3CC[C@]12C`, the responders at 60 mg/kg in experiment [1] (setting [5]) was 33%.

`CC(=O)[C@H]1CC[C@H]2[C@@H]3CC[C@H]4C[C@H](OC(=O)c5ccc(Cl)cc5)CC[C@]4(C)[C@H]3CC[C@]12C`: the results for the responders at 60 mg/kg in experiment [1] (setting [5]) and in experiment [1] (setting [6]) were 50% and below 16%, respectively.

For `COc1ccc(C(=O)O[C@@H]2CC[C@@]3(C)[C@@H](CC[C@@H]4[C@@H]3CC[C@]3(C)[C@@H](C(C)=O)CC[C@@H]43)C2)cc1`, the responders at 60 mg/kg in experiment [1] (setting [5]) and in experiment [1] (setting [6]) was 17% throughout.

Take `CC(=O)OCC(=O)[C@H]1CC[C@H]2[C@@H]3CC[C@H]4C[C@H](O)CC[C@]4(C)[C@H]3CC[C@]12C`: the responders at 60 mg/kg in experiment [1] (setting [5]) came out at 50%; in experiment [1] (setting [6]), 0%.

In the case of `CC(=O)OCC(=O)[C@H]1CC[C@H]2[C@@H]3CC[C@H]4C[C@H](OC(C)=O)CC[C@]4(C)[C@H]3CC[C@]12C`, the responders at 60 mg/kg in experiment [1] (setting [5]) and in experiment [1] (setting [6]) was 0% each time.

In the case of `CC(=O)OCC(=O)[C@H]1CC[C@H]2[C@@H]3CC[C@H]4C[C@H](OC(=O)C(C)C)CC[C@]4(C)[C@H]3CC[C@]12C`, the responders at 60 mg/kg in experiment [1] (setting [5]) worked out at 63%; in experiment [1] (setting [6]), 13%.

Take `CCO[C@H]1C[C@@]2(C)[C@@H](CC[C@@H]3[C@@H]2CC[C@]2(C)[C@@H](C(C)=O)CC[C@@H]32)C[C@@H]1O` [2β-ETHOXY-3α-HYDROXY-5α-PREGNAN-20-ONE, 2β-Ethoxy-3α-hydroxy-5α-pregnan-20-one]: the median effective dose (ED50) in experiment [2] came out at 6 mg/kg. In experiment [3], the IC50 amounted to 97 nM and the “Max. Inhib., maximal % of specifically bound [35S]-TBPS displaced” value is on record as 100%.

On to `CO[C@H]1C[C@@]2(C)[C@@H](CC[C@@H]3[C@@H]2CC[C@]2(C)[C@@H](C(C)=O)CC[C@@H]32)C[C@@H]1O` [2β-METHOXY-3α-HYDROXY-5α-PREGNAN-20-ONE, 2β-Methoxy-3α-hydroxy-5α-pregnan-20-one], for which the 50% effective dose (ED50) in experiment [2] was determined as 60 mg/kg. Further, in experiment [3], the IC50 is 66 nM and the “Max. Inhib., maximal % of specifically bound [35S]-TBPS displaced” value amounted to 100%.

Turning to `CC(=O)[C@H]1CC[C@H]2[C@@H]3CC[C@H]4C[C@](C)(O)CC[C@]4(C)[C@H]3CC[C@]12C` [3α-HYDROXY-3β-METHYL-5α-PREGNAN-20-ONE, 3α-hydroxy-3β-methyl-5α-pregnan-20-one], the ED50 in experiment [2] came to 9 mg/kg. The inhibition at 10 µM is 10% on progesterone receptor (read-out: % of inhibition of 3H-progesterone binding, A, competitor 10^-5 M, 0.15 nM 3H-progesterone) and 5% at progesterone receptor (read-out: % of inhibition of 3H-progesterone binding, B, competitor 10^-5 M, 0.25 nM 3H-progesterone). The inhibition at 1 µM was 4% on progesterone receptor (read-out: % of inhibition of 3H-progesterone binding, A, competitor 10^-6 M, 0.15 nM 3H-progesterone) and 2% on progesterone receptor (read-out: % of inhibition of 3H-progesterone binding, B, competitor 10^-6 M, 0.25 nM 3H-progesterone). Also, in experiment [3], the half-maximal inhibitory concentration (IC50) is 60 nM. Also, the “Max. Inhib., maximal % of specifically bound [35S]-TBPS displaced” value in experiment [3] is reported as 100%.

For the molecule `CC(=O)[C@H]1CC[C@H]2[C@@H]3CCC4=C[C@H](O)CC[C@]4(C)[C@H]3CC[C@]12C` [3α-HYDROXY-4-PREGNEN-20-ONE], in experiment [2], the 50% effective dose (ED50) turned out to be 20 mg/kg. Moreover, in experiment [3], the IC50 worked out at 154 nM and the “Max. Inhib., maximal % of specifically bound [35S]-TBPS displaced” value was 80%.

Regarding `CN1CCc2cc3c(cc2[C@H]1[C@@H]1OC(=O)c2c1ccc1c2OCO1)OCO3` [(+)bicuculline, reference compound], the “block of the stimulatory effect of GABA on 36Cl uptake” value in experiment [4] ((+)bicuculline 10 μM, GABA 25 μM) is listed as “completely block”. The “% enhancement of basal 36Cl uptake” value in experiment [4] (GABA (25 μM) + (+)bicuculline (10 μM)) was found to be 3 ± 2%.

Regarding `CC(=O)O[C@@H]1CC[C@@]2(C)[C@@H](CC[C@@H]3[C@@H]2CC[C@]2(C)[C@@H](C(C)=O)CC[C@@H]32)C1` [CH3], the responders at 60 mg/kg in experiment [1] (setting [5]) worked out at 25%.

For the molecule `NCCCC(=O)O` [GABA, gamma-aminobutyric acid], in experiment [3] (0.5-3.0 μM bicuculline, FIGS. 1A, 1B), the “shift of [35S]TBPS dose-response curve by (+)bicuculline” value is listed as “classical parallel shift”. Further, the “% enhancement of basal 36Cl uptake” value in experiment [4] (GABA (25 μM) alone) came out at 133 ± 6%.

The term ED50 denotes the dose at which the effect has come halfway, by size or by number of responders. One may read the IC50 as the point on the concentration scale where inhibition reaches its midpoint. The term inhibition denotes the percentage by which the read-out fell short of the control.

Source of the values: US5232917A, “Methods, compositions, and compounds for allosteric modulation of the GABA receptor by members of the androstane and pregnane series” (priority 1991, dated 1993).
